IC50 data for 14 compounds are collected here from ChEMBL document CHEMBL1134520, “Potent somatostatin undecapeptide agonists selective for somatostatin receptor 1 (sst1)” (J Med Chem, 2001).

Structures are written as SMILES. pIC50: −log10 of the molar value. Bridge positions count the residues as written; N and C are the ends. Square brackets hold non-standard residues; d marks the D form. Peptide text beside a SMILES is read from it. Phe(4-CH2NHiPr) = CC(C)NCc1ccc(C[C@H](N)C(=O)O)cc1

The target in assay [1] is Somatostatin receptor type 1 (Homo sapiens, UniProt P30872). Put plainly: Tested for ability to bind to 20 uM thick cryostat sections of a membrane pellet of cells transfected with human cloned somatostatin (sst) receptor subtype 1.
Chain of Somatostatin receptor type 1 (P30872 whole entry): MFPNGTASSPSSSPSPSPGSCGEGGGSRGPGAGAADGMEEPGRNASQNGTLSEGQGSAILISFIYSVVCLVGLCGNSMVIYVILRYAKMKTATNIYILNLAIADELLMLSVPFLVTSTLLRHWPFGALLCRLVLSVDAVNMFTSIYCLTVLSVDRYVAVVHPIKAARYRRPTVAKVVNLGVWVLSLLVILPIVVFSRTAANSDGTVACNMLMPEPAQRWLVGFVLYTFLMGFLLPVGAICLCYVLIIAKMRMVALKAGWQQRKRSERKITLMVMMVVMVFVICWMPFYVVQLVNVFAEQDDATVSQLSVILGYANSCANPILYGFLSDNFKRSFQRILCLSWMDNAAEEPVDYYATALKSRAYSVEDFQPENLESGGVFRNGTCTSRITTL
The target in assay [2] is Somatostatin receptor type 2 (Homo sapiens, UniProt P30874). Put plainly: Tested for ability to bind to 20 uM thick cryostat sections of a membrane pellet of cells transfected with human cloned somatostatin (sst) receptor subtype 2.
Chain of Somatostatin receptor type 2 (P30874 whole entry): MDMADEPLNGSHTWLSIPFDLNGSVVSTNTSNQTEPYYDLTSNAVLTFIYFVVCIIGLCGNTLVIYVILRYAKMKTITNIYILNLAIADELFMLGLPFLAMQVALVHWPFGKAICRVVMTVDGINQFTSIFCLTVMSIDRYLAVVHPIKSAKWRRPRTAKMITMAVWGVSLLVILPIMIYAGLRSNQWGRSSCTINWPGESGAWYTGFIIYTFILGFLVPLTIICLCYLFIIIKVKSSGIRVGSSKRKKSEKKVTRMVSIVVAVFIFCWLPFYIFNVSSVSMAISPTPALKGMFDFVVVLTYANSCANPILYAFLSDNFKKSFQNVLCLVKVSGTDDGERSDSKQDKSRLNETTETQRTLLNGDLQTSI
Assay [3] addresses Somatostatin receptor type 4 (Homo sapiens, UniProt P31391). Put plainly: Tested for ability to bind to 20 uM thick cryostat sections of a membrane pellet of cells transfected with human cloned somatostatin (sst) receptor subtype 4.
Assay [4] addresses Somatostatin receptor type 5 (Homo sapiens, UniProt P35346). Put plainly: Tested for ability to bind to 20 uM thick cryostat sections of a membrane pellet of cells transfected with human cloned somatostatin (sst) receptor subtype 5.
Assay [5] concerns the target Somatostatin receptor type 3 (Homo sapiens, UniProt P32745). Put plainly: Tested for ability to bind to 20 uM thick cryostat sections of a membrane pellet of cells transfected with human cloned somatostatin (sst) receptor subtype 3.

Chain of Somatostatin receptor type 4 (P31391 whole entry): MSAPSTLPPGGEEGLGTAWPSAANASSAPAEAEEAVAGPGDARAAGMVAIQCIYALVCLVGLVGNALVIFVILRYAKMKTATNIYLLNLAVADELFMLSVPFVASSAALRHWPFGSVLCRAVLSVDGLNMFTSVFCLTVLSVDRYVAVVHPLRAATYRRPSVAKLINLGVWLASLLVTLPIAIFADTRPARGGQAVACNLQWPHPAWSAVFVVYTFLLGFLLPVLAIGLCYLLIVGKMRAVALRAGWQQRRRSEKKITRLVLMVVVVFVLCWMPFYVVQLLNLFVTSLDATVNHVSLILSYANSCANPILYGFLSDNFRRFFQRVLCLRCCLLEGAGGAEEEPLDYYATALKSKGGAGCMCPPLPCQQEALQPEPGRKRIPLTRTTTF
Chain of Somatostatin receptor type 3 (P32745 whole entry): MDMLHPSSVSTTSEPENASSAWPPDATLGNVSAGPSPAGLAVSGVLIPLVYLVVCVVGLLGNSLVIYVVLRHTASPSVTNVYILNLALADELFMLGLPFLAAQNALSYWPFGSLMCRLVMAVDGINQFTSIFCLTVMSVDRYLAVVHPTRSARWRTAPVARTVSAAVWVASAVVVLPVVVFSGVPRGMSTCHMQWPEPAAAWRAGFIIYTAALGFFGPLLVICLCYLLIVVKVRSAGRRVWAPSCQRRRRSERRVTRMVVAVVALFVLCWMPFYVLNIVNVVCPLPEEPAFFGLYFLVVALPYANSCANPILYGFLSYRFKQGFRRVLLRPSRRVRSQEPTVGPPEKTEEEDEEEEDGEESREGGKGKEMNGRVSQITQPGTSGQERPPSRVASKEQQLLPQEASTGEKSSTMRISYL
Chain of Somatostatin receptor type 5 (P35346 whole entry): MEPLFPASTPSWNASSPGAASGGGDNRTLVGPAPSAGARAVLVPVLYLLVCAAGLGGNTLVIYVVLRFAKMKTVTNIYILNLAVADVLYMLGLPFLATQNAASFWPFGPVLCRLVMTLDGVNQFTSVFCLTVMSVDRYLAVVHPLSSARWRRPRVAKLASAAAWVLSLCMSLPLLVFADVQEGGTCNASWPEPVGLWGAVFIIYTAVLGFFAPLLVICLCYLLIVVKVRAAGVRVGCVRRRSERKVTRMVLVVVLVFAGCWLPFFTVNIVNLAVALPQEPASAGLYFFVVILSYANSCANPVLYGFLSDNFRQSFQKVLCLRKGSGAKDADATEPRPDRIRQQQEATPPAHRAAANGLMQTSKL

Regarding `CC(C)NCc1ccc(C[C@@H]2NC(=O)[C@@H](Cc3ccc4ccccc4c3)NC(=O)[C@H](Cc3ccccc3)NC(=O)[C@H](Cc3ccccc3)NC(=O)[C@H](CCCCN)NC(=O)[C@H](NC(=O)CCc3ccc(O)cc3)CSSC[C@H](C(=O)O)NC(=O)[C@H](CO)NC(=O)[C@H]([C@@H](C)O)NC(=O)[C@H](Cc3ccccc3)NC(=O)[C@H]([C@@H](C)O)NC2=O)cc1`, the pIC50 in assay [1], in assay [2], in assay [3], in assay [4] and in assay [5] was under 6.00 each time.
Turning to `C[C@@H](O)[C@@H]1NC(=O)[C@H](Cc2ccccc2)NC(=O)[C@H]([C@@H](C)O)NC(=O)[C@H](CCCCN)NC(=O)[C@@H](Cc2c[nH]c3ccccc23)NC(=O)[C@H](Cc2ccccc2)NC(=O)[C@H](Cc2ccccc2)NC(=O)[C@H](CC(N)=O)NC(=O)[C@H](CCCCN)NC(=O)[C@@H](N)CSSC[C@@H](C(=O)O)NC(=O)[C@H](CO)NC1=O`, the negative-log IC50 (pIC50) in assay [1] is 8.27; in assay [2], 9.48; in assay [3] it was 8.46; in assay [4], 7.78; in assay [5], 8.37.
`CC(C)NCc1ccc(C[C@@H]2NC(=O)[C@@H](Cc3c[nH]c4ccccc34)NC(=O)[C@H](Cc3ccccc3)NC(=O)[C@H](Cc3ccccc3)NC(=O)[C@H](CCCCN)NC(=O)[C@H](NC(=O)[C@@H](N)Cc3ccc(O)cc3)CSSC[C@@H](C(=O)O)NC(=O)[C@H](CO)NC(=O)[C@H]([C@@H](C)O)NC(=O)[C@H](Cc3ccccc3)NC(=O)[C@H]([C@@H](C)O)NC2=O)cc1`: the negative-log IC50 (pIC50) in assay [2] is under 5.00; in assay [3] it was under 6.00; in assay [5], under 6.00.
In the case of `C[C@@H](O)[C@@H]1NC(=O)[C@H](Cc2ccccc2)NC(=O)[C@H]([C@@H](C)O)NC(=O)[C@H](Cc2ccc(Nc3nnc(N)[nH]3)cc2)NC(=O)[C@@H](Cc2c[nH]c3ccccc23)NC(=O)[C@H](Cc2ccccc2)NC(=O)[C@H](Cc2ccccc2)NC(=O)[C@H](CCCCN)NC(=O)[C@@H](N)CSSC[C@@H](C(=O)O)NC(=O)[C@H](CO)NC1=O`, the negative logarithm of the IC50 (pIC50) in assay [1] is under 6.00; in assay [2], under 5.00; in assay [3], under 5.00; in assay [4], under 5.00; in assay [5] it was under 5.00.
Consider `CCN=C(NCC)NCCCC[C@@H]1NC(=O)[C@@H](Cc2c[nH]c3ccccc23)NC(=O)[C@H](Cc2ccccc2)NC(=O)[C@H](Cc2ccccc2)NC(=O)[C@H](CCCCN)NC(=O)[C@@H](N)CSSC[C@@H](C(=O)O)NC(=O)[C@H](CO)NC(=O)[C@H]([C@@H](C)O)NC(=O)[C@H](Cc2ccccc2)NC(=O)[C@H]([C@@H](C)O)NC1=O`, for which the negative-log IC50 (pIC50) in assay [1] is 6.35; in assay [2], under 5.00; in assay [3] it was under 6.00; in assay [4], under 5.00; in assay [5], under 6.00.
For the compound `CC(C)NCc1ccc(C[C@@H]2NC(=O)[C@@H](Cc3ccc4ccccc4c3)NC(=O)[C@H](Cc3ccccc3)NC(=O)[C@H](Cc3ccccc3)NC(=O)[C@H](CCCCN)NC(=O)[C@@H](NC(=O)[C@@H](N)Cc3ccc(O)cc3)CSSC[C@@H](C(=O)O)NC(=O)[C@H](CO)NC(=O)[C@H]([C@@H](C)O)NC(=O)[C@H](Cc3ccccc3)NC(=O)[C@H]([C@@H](C)O)NC2=O)cc1`, the pIC50 in assay [1] was 7.62; in assay [2], under 6.00; in assay [3], under 6.00; in assay [4] it was under 6.00; in assay [5] it was 6.20.
Consider `CC(C)NCc1ccc(C[C@@H]2NC(=O)[C@@H](Cc3c[nH]c4ccccc34)NC(=O)[C@H](Cc3ccccc3)NC(=O)[C@H](Cc3ccccc3)NC(=O)[C@@H](NC(=O)[C@@H](N)Cc3ccc(O)cc3)CSSC[C@@H](C(=O)O)NC(=O)[C@H]([C@@H](C)O)NC(=O)[C@H](Cc3ccccc3)NC(=O)[C@H]([C@@H](C)O)NC2=O)cc1`, for which the negative-log IC50 (pIC50) in assay [1] was 6.14; in assay [2] it was under 5.00; in assay [3], under 6.00; in assay [5] it was 6.35.
On to `CNCc1ccc(C[C@@H]2NC(=O)[C@@H](Cc3ccc4ccccc4c3)NC(=O)[C@H](Cc3ccccc3)NC(=O)[C@H](Cc3ccccc3)NC(=O)[C@H](CCCCN)NC(=O)[C@@H](N)CSSC[C@@H](C(=O)O)NC(=O)[C@H](CO)NC(=O)[C@H]([C@@H](C)O)NC(=O)[C@H](Cc3ccccc3)NC(=O)[C@H]([C@@H](C)O)NC2=O)cc1`, for which the pIC50 in assay [1] is 7.00; in assay [2], 6.25; in assay [3], under 5.00; in assay [4], under 6.00; in assay [5], 6.55.
Take `CC(C)NCc1ccc(C[C@@H]2NC(=O)[C@@H](Cc3c[nH]c4ccccc34)NC(=O)[C@H](Cc3ccccc3)NC(=O)[C@H](Cc3ccccc3)NC(=O)[C@H](CCCCN)NC(=O)[C@@H](NC(=O)[C@@H](N)Cc3ccc(O)cc3)CSSC[C@@H](C(=O)O)NC(=O)[C@H](CO)NC(=O)[C@H]([C@@H](C)O)NC(=O)[C@H](Cc3ccccc3)NC(=O)[C@H]([C@@H](C)O)NC2=O)cc1`: the negative-log IC50 (pIC50) in assay [3] is under 5.00; in assay [5], 6.15.
In the case of `C[C@@H](O)[C@@H]1NC(=O)[C@H](CCCCN)NC(=O)[C@@H](Cc2c[nH]c3ccccc23)NC(=O)[C@H](Cc2ccccc2)NC(=O)[C@H](Cc2ccccc2)NC(=O)[C@@H](N)CSSC[C@@H](C(=O)O)NC(=O)[C@H](Cc2ccccc2)NC1=O` (H-CFF[dW]KTFC-OH; disulfide 1-8), the pIC50 in assay [2] was 7.36; in assay [3], 8.89.
Take `CC(C)NCc1ccc(C[C@@H]2NC(=O)[C@@H](Cc3c[nH]c4ccccc34)NC(=O)[C@H](Cc3ccccc3)NC(=O)[C@H](Cc3ccccc3)NC(=O)[C@@H](N)CSSC[C@@H](C(=O)O)NC(=O)[C@H](Cc3ccccc3)NC(=O)[C@H]([C@@H](C)O)NC2=O)cc1` (H-CFF[dW][Phe(4-CH2NHiPr)]TFC-OH; disulfide 1-8): the negative-log IC50 (pIC50) in assay [2] and in assay [4] was under 5.00 each time.
For `CC(C)NCc1ccc(C[C@@H]2NC(=O)[C@@H](Cc3c[nH]c4ccccc34)NC(=O)[C@H](Cc3ccccc3)NC(=O)[C@H](Cc3ccccc3)NC(=O)[C@H](CCCCN)NC(=O)[C@@H](N)CSSC[C@@H](C(=O)O)NC(=O)[C@H](CO)NC(=O)[C@H]([C@@H](C)O)NC(=O)[C@H](Cc3ccccc3)NC(=O)[C@H]([C@@H](C)O)NC2=O)cc1` (H-CKFF[dW][Phe(4-CH2NHiPr)]TFTSC-OH; disulfide 1-11), the negative-log IC50 (pIC50) in assay [2] is under 5.00; in assay [4], under 5.00; in assay [5], 6.46.
As for `CC(C)NCc1ccc(C[C@@H]2NC(=O)[C@@H](Cc3c[nH]c4ccccc34)NC(=O)[C@H](Cc3ccccc3)NC(=O)[C@@H](NC(=O)[C@@H](N)Cc3ccc(O)cc3)CSSC[C@@H](C(=O)O)NC(=O)[C@H](Cc3ccccc3)NC(=O)[C@H]([C@@H](C)O)NC2=O)cc1` (H-YCF[dW][Phe(4-CH2NHiPr)]TFC-OH; disulfide 2-8), the pIC50 in assay [1], in assay [2], in assay [3] and in assay [5] was under 6.00 each time.
`CC(C)NCc1ccc(C[C@@H]2NC(=O)[C@@H](Cc3ccc4ccccc4c3)NC(=O)[C@H](Cc3ccccc3)NC(=O)[C@H](Cc3ccccc3)NC(=O)[C@H](CCCCN)NC(=O)[C@H](NC(=O)CCc3ccc(O)cc3)CSSC[C@@H](C(=O)O)NC(=O)[C@H](CO)NC(=O)[C@H]([C@@H](C)O)NC(=O)[C@H](Cc3ccccc3)NC(=O)[C@@H]([C@@H](C)O)NC2=O)cc1` (stereo in doubt; 30): the figures for the negative logarithm of the IC50 (pIC50) in assay [1], in assay [4] and in assay [5] were 6.07, under 6.00 and 6.12, respectively.
